From US20210283099A1, “CDC7 KINASE INHIBITORS AND USES THEREOF” (SLOAN-KETTERING INSTITUTE FOR CANCER RESEARCH, priority 2010, published 2021)
pIC50: −log10 of the molar value. Read-outs that look alike come from different tables or passages of the source.

Legend:
[1] = system: MOLT3; assay: Cytotoxicity assay (Alamar blue); assay type: cell-based; details: MOLT-3, Human Acute Lympholastic T-cell Leukemia
Description: (§1) FIGS. 16A-16B. Granaticin A and Granaticin B inhibit multiple tumor types: The indicated cell lines and primary patient samples were tested against the compounds listed in standard cytotoxicity assays (12 point dose response using Alamar blue reduction as an indicator of cell viability). Assays were done in triplicate and IC50 determinations were run in 12-point serial dilutions from […] to 5 nM. […] These include ras and EGFR gatekeeper mutation containing cell lines in addition to p53 mutant cell lines and other known chemotherapy resistant cell lines. Specifically, this included multi-drug resistance phenotype (MDR-overexpressing) cell lines from multiple hematologic and solid tumor cell lines. Table 1 highlights a series of primary patient leukemia samples-both acute and chronic and treatment naïve and refractory tested against granaticins A and B and Derivatives 1 and 2 (see Examples).

[2] = system: MESO47; assay: Cytotoxicity assay (Alamar blue); assay type: cell-based; details: human mesothelioma, WT-1 overexpression
Description: as §1

[3] = system: HCC827; assay: Cytotoxicity assay (Alamar blue); assay type: cell-based; details: human lung adenocarcinoma, DelE746-A750 EGFR mutation
Description: as §1

[4] = system: JURKAT E61; assay: Cytotoxicity assay (Alamar blue); assay type: cell-based; details: Jurkat E6.1, Human Acute Lymphoblastic T-cell leukemia
Description: as §1

[5] = system: A2780; assay: Cytotoxicity assay (Alamar blue); assay type: cell-based; details: Human ovarian carcinoma
Description: as §1

[6] = system: HeLa S3 cells; assay: Double thymidine block and release, FACS and morphology; assay type: cell-based, human; details: for morphologic appearance: 15 hours release from double thymidine block; for cell cycle progression by FACS: cells synchronized at the G1/S transition and released into compound
Description: FIG. 9. […] Synchronized cells (time zero) were released into media containing granaticin A for the indicated times and standard FACS analysis performed looking at DNA content.
FIG. 11. Cell cycle arrest in Hela S3 cells: Morphologic appearance of control (DMSO), granaticin A, and granaticin B treated HeLa S3 cells following 15 hours release from double thymidine block. […] The corresponding FACS profiles are shown.

[7] = system: CLL, untreated, chromosome 17 p del.; assay: Cytotoxicity assay (Alamar blue), patient leukemia sample; assay type: cell-based; details: Homo sapiens
Description: as §1
(§2) Table 1 highlights a series of primary patient leukemia samples-both acute and chronic and treatment naïve and refractory and the effect of granaticin A, granaticin B, derivative 1, and derivative 2 to inhibit cellular proliferation. […] The two starred samples represent serial samples taken from the same patients after they received 2-3 cycles of additional high dose salvage chemotherapy and indicate that although refractory to salvage chemotherapy, the Cdc7 pathway remains a potentially efficacious target as the sensitivity to these compounds remains unchanged. Importantly, each patient sample was resistant to the prior therapy received using this assay.

[8] = system: CML, untreated; assay: as above; assay type: cell-based; details: Homo sapiens
Description: as §1, §2

[9] = system: AML, primary refractory 1*; assay: as above; assay type: cell-based; details: Homo sapiens, second sample from the same patient following high-dose chemotherapy
Description: as §1, §2

[10] = system: AML, relapsed; assay: as above; assay type: cell-based; details: Homo sapiens
Description: as §1, §2

[11] = system: AML, de novo; assay: as above; assay type: cell-based; details: Homo sapiens
Description: as §1, §2

[12] = system: Biphenotypic acute leukemia 1; assay: as above; assay type: cell-based; details: Homo sapiens
Description: as §1, §2

[13] = system: ALL, Ph+; assay: as above; assay type: cell-based; details: Homo sapiens
Description: as §1, §2

[14] = system: AML, relapsed s/p HSCT; assay: as above; assay type: cell-based; details: Homo sapiens
Description: as §1, §2

[15] = system: Biphenotypic acute leukemia 1*; assay: as above; assay type: cell-based; details: Homo sapiens, second sample from the same patient following high-dose chemotherapy
Description: as §1, §2

[16] = system: AML, primary refractory; assay: as above; assay type: cell-based; details: Homo sapiens
Description: as §1, §2

[17] = system: AMMoL; assay: as above; assay type: cell-based; details: Homo sapiens
Description: as §1, §2

[18] = system: AML, primary refractory 1; assay: as above; assay type: cell-based; details: Homo sapiens
Description: as §1, §2

[19] = system: RPE (retinal pigment epithelial cells); assay: FACS and caspase-3 assay in normal diploid cells; assay type: cell-based
Description: FIGS. 23A-23C. Granaticin A and B are not cytotoxic to normal diploid cells: FIGS. 23A-23B: Granaticin B exposure is not cytotoxic to normal diploid cells. Either HeLa or RPE (retinal pigment epithelial cells, a normal human diploid cell line) cells were incubated in carrier control (DMSO) or granaticin B (1 microM) for 24 hours and samples were subjected to standard FACS analysis with the x-axis indicating DNA content (FIG. 23A). […] FIG. 23C: Granaticin A exposure is not cytotoxic to normal diploid cells. Either HeLa or RPE (retinal pigment epithelial cells, a normal diploid cell line) cells were incubated in carrier control (DMSO) or granaticin A for 24 hours and samples were subjected to standard FACS analysis with FL2 indicating DNA content.

[20] = system: HeLa cells; assay: S phase checkpoint western blot analysis; assay type: cell-based, human
Description: FIG. 15. […] HeLa cells were incubated in the presence of granaticin A or carrier control (DMSO) for the indicated times and whole cell extracts were subjected to SDS-PAGE and western blot analysis. Asyn=asynchronously growing HeLa cells. HU=HeLa cells exposed to hydroxyurea for the indicated time. HU was used as a control for DNA damaging agent that is known to […] the DNA damage checkpoint response. Again, we observed that Mcm2 mobility is shifted in the cells treated with granaticin A. MCM2 mobility is not affected by HU. Activation of the DNA damage/replication checkpoint correlates with ATM/ATR dependent phosphorylation of Chk1 at Ser345.

[21] = Liver microsome stability test; assay type: in vitro ADME
Description: The stability of granaticin A was determined in mouse and human liver microsomes.

[22] = system: PhALL3.1; assay: Cytotoxicity assay (Alamar blue), patient leukemia sample; assay type: cell-based, human; details: for pIC50: Homo sapiens, PhALL3.1
Description: as §1, §2

[23] = system: HeLa cells; assay: Caspase-3 activity in HeLa cells; assay type: cell-based, human; details: rescued by Bcl-XL overexpression and 10 micromolar Ac-DEVD-CHO
Description: FIGS. 12-14. Inhibition of Granaticin A Induced Caspase-3 Activity in HeLa cells. Growth curves in the presence of the indicated micromolar concentrations of granaticin A were performed and caspase-3 activity was measured following addition of a substrate that when cleaved by caspase-3 results in light emission which is quantitated by a fluorimeter (y-axis) as a function of time (x-axis).

[24] = relapsed (first of two such lines, r11)
[25] = relapsed (second of two such lines, r12)

Row | Structure (SMILES) | pIC50 [1] | pIC50 [2] | pIC50 [3] | pIC50 [4] | pIC50 [5] | morphologic appearance [6] | cell cycle progression by FACS [6] | pIC50 [7] | pIC50 [8] | pIC50 [9] | pIC50 [10, 24] | pIC50 [10, 25] | pIC50 [11] | pIC50 [12] | pIC50 [13] | pIC50 [14] | pIC50 [15] | pIC50 [16] | pIC50 [17] | pIC50 [18] | further results
1 | CC1OC2CC(O)C1(O)c1c(O)c3c(c(O)c12)C(=O)C1=C(C3=O)[C@H](C)O[C@H]2CC(=O)O[C@@H]12 (stereo partly drawn) [Granaticin A, granaticin A] | 7.52 | 6.21 | 6.55 | 7.30 | 6.92 | arrested with flattened morphology and peri-nuclear vacuolization | S phase progression is also blocked | 6.34 | 6.59 | 6.20 | 5.92 | 6.68 | 6.14 | 6.52 | 6.25 | 5.73 | 6.27 | 6.11 | 6.00 | 6.12 | cell cycle profile [19]: unaffected; double strand DNA breaks ([20]; HeLa cells): increased double strand DNA breaks; Mcm2 mobility ([20]; SDS-PAGE and western blot): shifted; S phase checkpoint activation ([20]; western blot, Chk1 Ser345): does not activate the S phase checkpoint; recovery at 30 min ([21]; human liver microsomes): 23.9%; recovery at 60 min ([21]; human liver microsomes): 12%; recovery at 30 min ([21]; mouse liver microsomes): 3.68%; recovery at 60 min ([21]; mouse liver microsomes): 3.84%; pIC50 [22]: 6.85; activity in the cell based assays ([22]; PhALL3.1 cell line): very active; caspase-3 activity [23]: activation of caspase-3 and apoptosis
2 | CC1OC2CC(O[C@H]3CC[C@H](O)[C@H](C)O3)C1(O)c1c(O)c3c(c(O)c12)C(=O)C1=C(C3=O)[C@H](C)O[C@H]2CC(=O)O[C@@H]12 (stereo partly drawn) [Granaticin B, granaticin B] | 8.00 | 6.42 | 6.92 | 7.70 | 7.70 | nuclear blebbing and cell death | Induces Cell Cycle Arrest | 6.51 | 7.10 | 7.00 | 7.00 | 7.30 | 6.74 | 7.40 | 6.72 | 6.21 | 7.00 | 6.85 | 6.31 | 6.96 | caspase-3 activation ([19]; RPE cells, 1 microM): does not result in caspase-3 activation; cell cycle profile ([19]; RPE cells, 24 hours (granaticin B 1 microM)): essentially unaffected; pIC50 [22]: 7.52
